Values of other authors, collected in publication PMC4297300, “Different binding motifs of the celiac disease-associated HLA molecules DQ2.5, DQ2.2, and DQ7.5 revealed by relative quantitative proteomics of endogenous peptide repertoires” (Immunogenetics, 2014).

Biological target: DQ2.2
Conditions: ref Bodd et al. [2012]; cited from earlier work
Description: The risk for celiac disease associated with DQ2.5 and DQ2.2 is remarkably different (Margaritte-Jeannin et al. [2004]; Sollid and Lie [2005]). Studying gluten-reactive T cells from DQ2.5 celiac patients with antigen-presenting cells expressing DQ2.5 or DQ2.2, reactivity to all gluten epitopes defined by DQ2.5 restricted T cells were observed albeit with small quantitative differences (Qiao et al. [2005]; Vader et al. [2003]). It was only when antigen presenting cells were pulsed with antigen and incubated for extended time before mixing with T cells that qualitative differences were observed s ...

PFSEQEQPV [DQ2.2-glut-L1]
Kinetic stability of binding to DQ2.2: high kinetic stability
